Experimental data as given in patent US11547651B2, “Ecofriendly biofilm-disrupting antimicrobial formulations, their development, and their uses” (Alira Health Boston LLC, priority 2017, dated 2023).
Read-outs that look alike come from different tables or passages of the source.

Tests used:
mice = conditions: cited from earlier work
[1] = system: aquatic and terrestrial organisms; conditions: cited from earlier work
[2] = system: oral care and wound care pathogens; conditions: background statement, organism not given; cited from earlier work
[3] = system: common oral care and wound care pathogens; assay: In vitro broad spectrum comparison against common oral care and wound care pathogens, silver as positive control; type: cell-based; conditions: for broad spectrum antimicrobial activity compared with silver: in vitro, common oral care and wound care pathogens
Method: The MIC of the antimicrobials was from literature review as well as in vitro studies in our lab with the five major oral care and five major wound care pathogens. In the literature typically only one bacteria was tested, thus, it was difficult to ascertain whether the target was a broad spectrum antimicrobial. Oral care pathogens tested include: Fusobacterium nucleatum ss vincentii, Porphyromonas gingivalis, Prevotella intermedia, Aggregatibacter actinomycetemcomitans and Streptococcus mutans. Wound care pathogens included: Pseudomonas aeruginosa, Streptococcus pyogenes, Staphylococcus aureus, Enterococcus faecalis, and Proteus mirabilis. For the JMP® SAS analysis the antimicrobial scoring was based on the MIC in μg/ml using the following point scale: 5) 1-10 μg/ml, 4) 11-25 μg/ml, 3) 26-50 μg/ml, 2) 51-100 μg/ml, 1) >101, and ND for not determined.
In order to directly compare the top potential Ecofriendly antimicrobial candidates from the JMP SAS multivariate analysis described above, we examined how some of these compounds (aloesin, zinc pyrithione, cinnamon, lemongrass, manuka honey, peppermint, jojoba oil) performed against common oral care and wound care pathogens, using silver as a positive control. […] Zinc pyrithione is commonly used as an antibacterial and antifungal, is safe for human use, and is a common ingredient in dandruff shampoo.

[4] = system: aquatic and terrestrial organisms; assay: Eco-friendliness from ECOTOX database records; conditions: point scale 5 to 1 from number of ECOTOX references
Description: Eco-friendliness ratings were based on the number of references from the ECOTOX database. The scoring used the following point scale: 5) no toxicity to aquatic and terrestrial organisms, 4) 1-10 result records, 3) 11-25, 2) 26-50, 1) >51, and ND for not determined. Commonly used compounds such as Triclosan and silver were given an unacceptable Ecofriendly score of 1.

[5] = US EPA ecotoxicology database, aquatic environment

Question: For `Oc1cc(Cl)ccc1Oc1ccc(Cl)cc1Cl` [Triclosan, 5-Chloro-2-(2,4-dichlorophenoxy)phenol], which LD50 (mice) is on record?
Answer: Its LD50 is 1.5 mg/day.

Question: What about the “number of records/references in the ECOTOX database” value (from here on “number of records/references”) [1, 5] of the same molecule?
Answer: Its value is 513.

Question: And the “microbial inhibitory concentration (MIC)” value [2]?
Answer: The value was 125 µg/mL.

Question: Which “broad spectrum antimicrobial activity compared with silver” value [3] does the source give for `CC(=O)Cc1cc(=O)c2c(C)cc(O)c([C@@H]3O[C@H](CO)[C@@H](O)[C@H](O)[C@H]3O)c2o1` [aloesin] here?
Answer: The value was “inferior to silver”.

Question: For zinc pyrithione, which “Ecofriendly (ecotoxicology) score” value [4] is on record?
Answer: Its value is 1 (>51).

Question: And the “broad spectrum antimicrobial activity compared with silver” value [3]?
Answer: The value was “better than silver”.

Question: And the “number of records/references” value [1, 5]?
Answer: The value was 151.

Question: Which “log reduction of most bacterial pathogens” value ([3]; planktonic bacterial and bacterial biofilms) does the source give for silver here?
Answer: Its value is 5 fold log reduction.

Question: And the “number of records/references” value [1]?
Answer: Its value is 5,266.

Question: And the “microbial inhibitory concentration (MIC)” value [2]?
Answer: Its value is 7.5 µg/mL.
